Measured values from patent publication US20100331315A1, “RHODANINES AND RELATED HETEROCYCLES AS KINASE INHIBITORS” (priority 2009, published 2010).

What was measured:
[1] = test system: PC-3 human prostatic cancer cells; test: Alamar Blue cell proliferation assay, PC3; assay type: cell-based; details: PC-3, PC3, Table 1, read-out: AB: PC3
Protocol: (§1) A representative cell-proliferation assay protocol using Alamar Blue dye (stored at 4° C., use 20 ul per well) is described hereafter.
(§2) a. Split and trypsinize cells.
(§3) b. Count cells using hemocytometer.
(§4) c. Plate 4,000-5,000 cells per well in 100 μl of medium and seed into a 96-well plate according to the following plate layout. Add cell culture medium only to wells B10 to B12. Wells B1 to B9 have cells but no compound added.
(§5) d. Add 100 μl of 2× drug dilution to each well in a concentration shown in the plate layout above. At the same time, add 100 μl of media into the control wells (wells B10 to B12). Total volume is 200 μl/well.
(§6) e. Incubate four (4) days at 37° C., 5% CO2 in a humidified incubator.
(§7) f. Add 20 μl Alamar Blue reagent to each well.
(§8) g. Incubate for four (4) hours at 37° C., 5% CO2 in a humidified incubator.
(§9) h. Record fluorescence at an excitation wavelength of 544 nm and emission wavelength of 590 nm using a microplate reader.
(§10) In the assays, cells are cultured with a test compound for approximately four days, the dye is then added to the cells and fluorescence of […] dye is detected after approximately four hours. Different types of cells can be utilized in the assays (e.g., HCT-116 human colorectal carcinoma cells, PC-3 human prostatic cancer cells and MiaPaca human pancreatic carcinoma cells).

MV-4-11 = test: Alamar Blue cell proliferation assay, MV-4-11; assay type: cell-based; details: Homo sapiens, MV4-11, MV-4-11, Table 1, read-out: AB: MV-4-11 IC50
Protocol: as §1, §2, §3, §4, §5, §6, §7, §8, §9, §10

MDAMB231 = test: Alamar Blue cell proliferation assay, MDAMB231; assay type: cell-based; details: Homo sapiens, MDA-MB-231, MDAMB231, Table 1, read-out: AB: MDAMB231 IC50
Protocol: as §1, §2, §3, §4, §5, §6, §7, §8, §9, §10

[2] = test system: MiaPaca human pancreatic carcinoma cells; test: Alamar Blue cell proliferation assay, MiaPaCa; assay type: cell-based; details: MIA PaCa-2, Table 1, read-out: AB: MiaPaCa IC50
Protocol: as §1, §2, §3, §4, §5, §6, §7, §8, §9, §10

recombinant PIM-1 = recombinant PIM-1 (Homo sapiens, UniProt P11309); test: PIM-1 assay (33P-ATP filter plate); assay type: biochemical; details: Table 1; read-out: PIM1: IC50
Protocol: The following procedure was used to assay the PIM-1 kinase activity of compounds of the invention. Other methods for assaying PIM-1 and other PIM kinases, as well as methods to assay for activity against the various kinases are known in the art.
In a final reaction volume of 50 ul, recombinant PIM-1 (1 ng) was incubated with 12 mM MOPS pH 7.0, 0.4 mM EDTA, glycerol 1%, brij 35 0.002%, 2-mercaptoethanol 0.02%, BSA 0.2 mg/ml, 100 uM KKRNRTLTK, 10 mM MgAcetate, 15 uM ATP, [γ-^33P-ATP] (specific activity approx. 500 cpm/pmol), DMSO 4% and test inhibitor compound at the required concentration. The reaction was initiated by the addition of the Magnesium ATP mixture. After 40 min incubation at 23° C., the reactions were quenched by the addition of 100 ul 0.75% Phosphoric acid, and the labeled peptide collected by filtration through a phosphocellulose filter plate. The plate was washed 4 times with 0.075% phosphoric acid (100 ul per well) and then, after the addition of scintillation fluid (20 ul per well), the counts were measured by a scintillation counter.

K-562 = test: Alamar Blue cell proliferation assay, K-562; assay type: cell-based; details: Homo sapiens, K562, K-562, Table 1, read-out: AB: K-562 IC50
Protocol: as §1, §2, §3, §4, §5, §6, §7, §8, §9, §10

recombinant human CK2 = biological target: T1, recombinant human CK2 (Homo sapiens, UniProt P68400); test: CK2 assay (cell-free, 33P-ATP filter plate); assay type: biochemical; details: Table 1
T1 construct: purchased Upstate
Protocol: Modulatory activity of compounds described herein was assessed in vitro in cell-free CK2 assays by the following method.
Test compounds in aqueous solution were added at a volume of 10 microliters, to a reaction mixture comprising 10 microliters Assay Dilution Buffer (ADB; 20 mM MOPS, pH 7.2, 25 mM beta-glycerolphosphate, 5 mM EGTA, 1 mM sodium orthovanadate and 1 mM dithiothreitol), 10 microliters of substrate peptide (RRRDDDSDDD, dissolved in ADB at a concentration of 1 mM), 10 microliters of recombinant human CK2 (25 ng dissolved in ADB; Upstate). Reactions were initiated by the addition of 10 microliters of ATP Solution (90% 75 mM MgCl2, 75 micromolar ATP dissolved in ADB; 10% [γ-^33P]ATP (stock 1 mCi/100 μl; 3000 Ci/mmol (Perkin Elmer) and maintained for 10 minutes at 30 degrees C. The reactions were quenched with 100 microliters of 0.75% phosphoric acid, then transferred to and filtered through a phosphocellulose filter plate (Millipore). After washing each well 5 times with 0.75% phosphoric acid, the plate was dried under vacuum for 5 min and, following the addition of 15 ul of scintillation fluid to each well, the residual radioactivity was measured using a Wallac luminescence counter.

Chain of recombinant PIM-1 (P11309 whole entry): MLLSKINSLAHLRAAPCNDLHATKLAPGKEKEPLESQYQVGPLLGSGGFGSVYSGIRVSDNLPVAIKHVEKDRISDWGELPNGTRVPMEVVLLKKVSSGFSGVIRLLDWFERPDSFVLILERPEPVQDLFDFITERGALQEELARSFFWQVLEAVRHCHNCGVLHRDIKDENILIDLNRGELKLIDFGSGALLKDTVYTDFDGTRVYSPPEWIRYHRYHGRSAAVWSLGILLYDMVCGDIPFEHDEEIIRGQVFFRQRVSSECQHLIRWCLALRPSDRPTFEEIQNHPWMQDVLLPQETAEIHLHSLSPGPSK
T1 sequence (P68400 whole entry): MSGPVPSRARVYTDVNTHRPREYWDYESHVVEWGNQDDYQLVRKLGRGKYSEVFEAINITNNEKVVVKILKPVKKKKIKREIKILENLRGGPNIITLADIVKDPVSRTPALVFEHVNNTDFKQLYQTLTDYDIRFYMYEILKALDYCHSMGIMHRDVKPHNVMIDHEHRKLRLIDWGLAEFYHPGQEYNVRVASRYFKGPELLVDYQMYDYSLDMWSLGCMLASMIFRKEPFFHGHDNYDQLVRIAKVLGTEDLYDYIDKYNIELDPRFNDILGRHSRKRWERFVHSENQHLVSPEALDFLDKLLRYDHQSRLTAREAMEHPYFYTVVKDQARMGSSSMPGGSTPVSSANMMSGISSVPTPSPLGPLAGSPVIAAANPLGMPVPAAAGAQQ
T1 sequence (P67870 whole entry partner): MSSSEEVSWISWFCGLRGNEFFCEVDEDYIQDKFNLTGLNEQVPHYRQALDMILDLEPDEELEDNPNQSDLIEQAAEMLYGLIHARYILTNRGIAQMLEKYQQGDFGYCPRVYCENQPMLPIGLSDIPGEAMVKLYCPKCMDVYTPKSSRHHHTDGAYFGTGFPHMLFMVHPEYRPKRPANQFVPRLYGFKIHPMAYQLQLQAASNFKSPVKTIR

IC50 [1] [µM]	IC50 (MV-4-11) [µM]	IC50 (MDAMB231) [µM]	IC50 [2] [µM]	IC50 (recombinant PIM-1) [µM]	IC50 (K-562) [µM]	IC50 (recombinant human CK2) [µM]	Structure (SMILES)
> 30	> 10	> 10	> 10	0.025	> 10	–	CN1CCCN(C(=O)c2ccc(-c3ccc(/C=C4\SC(=S)NC4=O)o3)cc2)CC1
> 30	> 10	> 10	> 10	0.064	> 10	–	CN1CCN(C(=O)c2ccc(-c3ccc(/C=C4\SC(=S)NC4=O)o3)cc2)CC1
> 30	> 1	> 10	> 10	0.019	> 10	0.196	NCCN1CCN(C(=O)c2ccc(-c3ccc(/C=C4\SC(=S)NC4=O)o3)cc2)CC1
> 30	> 10	> 10	> 10	0.006	> 10	0.131	CCN(CC)CCNC(=O)c1ccc(-c2ccc(/C=C3\SC(=S)NC3=O)o2)cc1
> 30	0.21	> 10	3.95	0.028	> 10	–	CCN1CCCC1CNC(=O)c1ccc(-c2ccc(/C=C3\SC(=S)NC3=O)o2)cc1 (stereo not drawn)
> 30	> 10	> 10	> 10	0.014	> 10	0.226	Cc1nccn1CCNC(=O)c1ccc(-c2ccc(/C=C3\SC(=S)NC3=O)o2)cc1
> 30	> 10	> 10	> 10	0.035	> 10	0.108	Cn1cncc1CNC(=O)c1ccc(-c2ccc(/C=C3\SC(=S)NC3=O)o2)cc1
> 30	> 10	> 10	> 10	0.037	> 10	–	CN1CCC(N(C)C(=O)c2ccc(-c3ccc(/C=C4\SC(=S)NC4=O)o3)cc2)C1 (stereo not drawn)
> 30	> 10	> 10	> 10	0.037	> 10	0.471	CN1CCCCC1CNC(=O)c1ccc(-c2ccc(/C=C3\SC(=S)NC3=O)o2)cc1 (stereo not drawn)
> 30	> 10	> 10	> 10	0.067	> 10	–	CC(C)N1CCN(C(=O)c2ccc(-c3ccc(/C=C4\SC(=S)NC4=O)o3)cc2)CC1
> 30	8.83	> 10	> 10	0.286	> 10	0.04	O=C1NC(=S)S/C1=C\c1ccc(-c2ccc(C(=O)NCc3ccccn3)cc2)o1
> 30	–	> 10	> 10	0.047	> 10	0.281	O=C1NC(=S)S/C1=C\c1ccc(-c2cccc(C(=O)Nn3cnnc3)c2)o1
–	> 10	> 10	> 10	0.226	> 10	0.107	O=C1NC(=S)S/C1=C\c1ccc(-c2ccc(Cl)c(C(=O)O)c2)o1
> 10	< 0.03	> 10	–	< 0.001	0.064	0.003	CCN(CC)CCNC(=O)c1ccc(Cl)c(-c2ccc(/C=C3\SC(=S)NC3=O)o2)c1
> 10	–	> 10	> 10	0.002	> 10	0.01	CCN(CC)CCNC(=O)c1cc(-c2ccc(/C=C3\SC(=S)NC3=O)o2)ccc1Cl
> 10	–	> 10	> 10	0.042	> 10	0.054	COCCNC(=O)c1cc(-c2ccc(/C=C3\SC(=S)NC3=O)o2)ccc1Cl
> 10	–	> 10	> 10	0.003	7.62	0.01	COCCNC(=O)c1ccc(Cl)c(-c2ccc(/C=C3\SC(=S)NC3=O)o2)c1
